Measurements: patent publication US8476229B2, “Blood sugar-modulating polypeptides” (China Medical University, priority 2008, dated 2013)

Test system: normal mice (BALB/c)
Experiment: Glucose challenge after oral administration of polypeptide, normal mice; blood sugar value by blood sugar meter
Type: in vivo
Conditions: 50 mg/kg-body weight oral; for Inhibition Rate (%) toward the blood sugar values: BALB/c fasted 18 hrs, 4 g/kg glucose i.p. after 15 minutes, blood sugar after 180 minutes, relative to water control; for effect of reducing the blood sugar values (in words): BALB/c, comment on Tables 4 and 5
Excerpt: The following materials were adopted in the examples: • (A) Experimental subjects: two strains of mice, BALB/c (the metabolism of blood sugar is normal) and ob/ob (spontaneous diabetes type 2), were used to conduct experiments, and they were provided by the National Laboratory Animal Center, Taiwan. • (B) Polypeptides: polypeptides with amino acid sequences shown in Table 1 were produced by the solid phase synthesis method.
Five normal mice (BALB/c) in each of the nine groups fasted for 18 hrs, and then, respectively, a solution (20 μL) of 50 mg/kg-body weight of the polypeptide of SEQ ID NO: 1, a solution (20 μL) of 50 mg/kg-body weight of the polypeptide of SEQ ID NO: 2, a solution (20 μL) of 50 mg/kg-body weight of the polypeptide of SEQ ID NO: 3, a solution (20 μL) of 50 mg/kg-body weight of the polypeptide of SEQ ID NO: 4, a solution (20 μL) of 50 mg/kg-body weight of the polypeptide of SEQ ID NO: 5, a solution (20 μL) of 50 mg/kg-body weight of the polypeptide of SEQ ID NO: 6, a solution (20 μL) of 50 mg/kg-body weight of the polypeptide of SEQ ID NO: 7, a solution (20 μL) of 50 mg/kg-body weight of the polypeptide of SEQ ID NO: 8, or a solution (20 μL) of 50 mg/kg-body weight of the polypeptide of SEQ ID NO:9, was given to each mouse of each group of the experimental group by oral administration, while in the control group (five mice), each mouse was given water (20 μL). After 15 minutes, a solution of 4 g/kg-body weight of glucose was injected into the peritoneal cavity of each mouse to rapidly raise the blood sugar value of each mouse. After 180 minutes, the blood of each mouse was extracted from its tails, and the blood sugar value was determined by a blood sugar meter (Accu-Check Advantage, Roche, Germany). The blood sugar values of the mice of the experimental group were compared with those of the control group and were analyzed to obtain the relative inhibition rate of each of the polypeptides toward the blood sugar values, as shown in Table 4.
Five normal mice (BALB/c) in each of two groups fasted for 18 hrs, and then, respectively, a solution (20 μL) of 50 mg/kg-body weight of the polypeptide of SEQ ID NO: 10, or a solution (20 μL) of 50 mg/kg-body weight of the polypeptide of SEQ ID NO:11, was given to each mouse of each group of the experimental group by oral administration, while in the control group (five mice), each mouse was given water (20 μL). After 15 minutes, a solution of 4 g/kg-body weight of glucose was injected into the peritoneal cavity of each mouse to rapidly raise the blood sugar value of each mouse. After 180 minutes, the blood of each mouse was extracted from its tails, and the blood sugar value was determined by a blood sugar meter (Accu-Check Advantage, Roche, Germany). The blood sugar values of the mice of the experimental group were compared with those of the control group and were analyzed to obtain a relative inhibition rate of the polypeptides of SEQ ID NO:10 and SEQ ID NO:11 toward the blood sugar values, as shown in Table 5.

Sequence | Inhibition Rate (%) toward the blood sugar values [%] | effect of reducing the blood sugar values (in words) | Inhibition Rate (%) toward the blood sugar values (50 mg/kg) [%] | Inhibition Rate (%) toward the blood sugar values (listed as SEQ ID NO:11, 50 mg/kg)
DENRVRIWVDTVAKTPTIG (ORYZA SATIVA) [SEQ ID NO: 9] | 60.2 ± 14.1 | better effect of reducing the blood sugar values |  | 
RVRIWVNKRGLVVSPPRIG (CUCURBITA MAXIMA) [SEQ ID NO: 1] | 15.7 ± 6.9 |  |  | 
RVRVWVDSYGIVSMVPKIG (VITIS VINIFERA) [SEQ ID NO: 4] | 67.8 ± 9.1 | better effect of reducing the blood sugar values |  | 
RVWVWVNSKGIVIRTPIIT (ZINNIA ELEGANS) [SEQ ID NO: 2] | 24.5 ± 2.3 |  |  | 
RVWVWINKDEIVYQVPTIG (MEDICAGO TRUNCATULA) [SEQ ID NO: 3] | 52.5 ± 14.9 |  |  | 
RVRVWVDENGIVISVPTIG (VITIS VINIFERA) [SEQ ID NO: 5] | 30.2 ± 31.3 |  |  | 
RVRVWVTERGIVAR (MOMORDICA …) [SEQ ID NO: 10] | 34.5 ± 8.8 | can reduce the blood sugar values of the normal mice efficiently |  | 
RVRVWVDEIRIVVRNPTAG (ARABIDOPSIS THALIANA) [SEQ ID NO: 8] | 25.5 ± 8.6 |  |  | 
RVRVWVDENGIVTRVPVIG (SAMBUCUS NIGRA) [SEQ ID NO: 7] | 56.3 ± 2.6 | better effect of reducing the blood sugar values |  | 
RVRVWVTERGIVARPPTIG (MOMORDICA …) [SEQ ID NO: 11] |  | can reduce the blood sugar values of the normal mice efficiently | 51.9 ± 19.4 | about 50%
RVRVWVNKKGKVIRVPRIG (CITRUS PARADISI) [SEQ ID NO: 6] | 26.2 ± 3.1 |  |  | 
